Activity calls are given as the source filed them. The rule behind the calls is not given here.
Legend:
NCI-H929 = assay: Antiproliferative activity against human NCI-H929 cells incubated for 48 hrs by CellTiter-Glo luminescent cell viability assay; assay type: functional, cell-based; conditions: NCI-H929, 48 h
[1] = Selectivity index, ratio of EC50 for human MDA-MB-231 cells to IC50 for ring stage Plasmodium falciparum K1; assay type: functional; set-up: reference not given here
MDA-MB-231 [2] = assay: Induction of apoptosis in human MDA-MB-231 cells assessed as necrotic cells at 9 uM incubated for 48 hrs by Annexin V-FITC/PI staining by flow cytometric analysis (reference value: 15%); assay type: functional
[3] = Half life in female rat liver microsomes at 3 uM preincubated for 5 mins followed by NADPH addition and measured up to 45 mins by LC-MS/MS analysis; assay type: ADME, Microsome
KMS-12-BM [4] = assay: Effect on human KMS-12-BM cells assessed as increase in cleaved PARP level at 10 uM incubated for 24 hrs by Western blot analysis; assay type: functional, cell-based
MDA-MB-231 [5] = assay: Induction of apoptosis in human MDA-MB-231 cells assessed as necrotic cells at 6 uM incubated for 48 hrs by Annexin V-FITC/PI staining by flow cytometric analysis (reference value: 15%); assay type: functional
[6] = Genotoxicity in Salmonella typhimurium TA98 in presence of S9 fraction incubated for 48 hrs by Ames test relative to control; assay type: toxicity, subcellular; conditions: salmonella enterica subsp. enterica serovar typhimurium, s9, 48 h
MDA-MB-231 [7] = assay: Induction of apoptosis in human MDA-MB-231 cells assessed as early apoptotic cells at 9 uM incubated for 48 hrs by Annexin V-FITC/PI staining by flow cytometric analysis (reference value: 5%); assay type: functional
MOLM-14 = assay: Antiproliferative activity against human MOLM14 cells incubated for 48 hrs by CellTiter-Glo luminescent cell viability assay; assay type: functional, cell-based; conditions: MOLM-14, 48 h
[8] = biological target: Histone-lysine N-methyltransferase SUV39H2 (Homo sapiens) (UniProt Q9H5I1); assay: Inhibition of human SUV39H2 at 100 uM using histone H3 as substrate incubated for 1 hr in presence of [3H]-SAM by filter binding method relative to control
Chain of Histone-lysine N-methyltransferase SUV39H2 (Homo sapiens) (Q9H5I1 whole entry): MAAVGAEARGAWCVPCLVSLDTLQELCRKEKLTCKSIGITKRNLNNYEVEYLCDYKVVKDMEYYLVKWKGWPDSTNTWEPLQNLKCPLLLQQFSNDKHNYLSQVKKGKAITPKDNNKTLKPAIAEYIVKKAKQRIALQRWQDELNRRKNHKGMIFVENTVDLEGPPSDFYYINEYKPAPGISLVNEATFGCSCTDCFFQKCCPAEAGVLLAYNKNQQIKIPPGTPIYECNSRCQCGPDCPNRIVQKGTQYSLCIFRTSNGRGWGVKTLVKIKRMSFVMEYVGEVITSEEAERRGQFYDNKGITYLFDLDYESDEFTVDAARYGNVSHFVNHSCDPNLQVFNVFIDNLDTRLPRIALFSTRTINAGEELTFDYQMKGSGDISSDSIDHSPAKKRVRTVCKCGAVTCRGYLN

Homo sapiens [9] = species: Homo sapiens; assay: Selectivity ratio of IC50 for human HDAC2 to IC50 for human HDAC6
OPM-2 = assay: Antiproliferative activity against human OPM2 cells incubated for 48 hrs by CellTiter-Glo luminescent cell viability assay; assay type: functional, cell-based; conditions: OPM-2, 48 h
[10] = Inhibition of human MLL1 complex using core histone as substrate incubated for 1 hr in presence of [3H]-SAM by filter binding method
KMS-12-BM [11] = assay: Antiproliferative activity against human KMS-12-BM cells incubated for 48 hrs by CellTiter-Glo luminescent cell viability assay; assay type: functional, cell-based
Homo sapiens [12] = species: Homo sapiens; assay: Inhibition of human EZH2 complex at 100 uM using core histone as substrate incubated for 1 hr in presence of [3H]-SAM by filter binding method relative to control
MCF7 = assay: Antiproliferative activity against human MCF7 cells incubated for 72 hrs by MTT assay; assay type: functional, cell-based; conditions: MCF7, 72 h
MDA-MB-231 [13] = assay: Induction of apoptosis in human MDA-MB-231 cells assessed as early apoptotic cells at 6 uM incubated for 48 hrs by Annexin V-FITC/PI staining by flow cytometric analysis (reference value: 5%); assay type: functional
KMS-12-BM [14] = assay: Effect on human KMS-12-BM cells assessed as increase in H3K9Me2 level at 2.5 to 10 uM incubated for 24 hrs by Western blot analysis; assay type: functional, cell-based
Homo sapiens [15] = species: Homo sapiens; assay: Selectivity ratio of IC50 for human HDAC5 to IC50 for human HDAC6
[16] = Effective permeability of the compound at pH 7.4 measured after 16 hrs by PAMPA assay; assay type: ADME; conditions: read-out: Peff
Homo sapiens [17] = species: Homo sapiens; assay: Selectivity ratio of IC50 for inhibition of human HDAC2 to IC50 for inhibition of human HDAC3
MDA-MB-231 [18] = assay: Induction of apoptosis in human MDA-MB-231 cells assessed as late apoptotic cells at 3 uM incubated for 48 hrs by Annexin V-FITC/PI staining by flow cytometric analysis (reference value: 3%); assay type: functional
Homo sapiens [19] = species: Homo sapiens; assay: Selectivity ratio of IC50 for human HDAC4 to IC50 for human HDAC6
[20] = Intrinsic clearance in male rat liver microsomes at 3 uM preincubated for 5 mins followed by NADPH addition and measured up to 45 mins by LC-MS/MS analysis; assay type: ADME, Microsome; conditions: read-out: CLH
[21] = biological target: Histone-lysine N-methyltransferase EHMT2 (Homo sapiens) (UniProt Q96KQ7); assay: Inhibition of human G9a at 100 uM using core histone H3 (1 to 21 residues) as substrate incubated for 1 hr in presence of [3H]-SAM by filter binding method relative to control
Chain of Histone-lysine N-methyltransferase EHMT2 (Homo sapiens) (Q96KQ7 whole entry, the tested form may be a part): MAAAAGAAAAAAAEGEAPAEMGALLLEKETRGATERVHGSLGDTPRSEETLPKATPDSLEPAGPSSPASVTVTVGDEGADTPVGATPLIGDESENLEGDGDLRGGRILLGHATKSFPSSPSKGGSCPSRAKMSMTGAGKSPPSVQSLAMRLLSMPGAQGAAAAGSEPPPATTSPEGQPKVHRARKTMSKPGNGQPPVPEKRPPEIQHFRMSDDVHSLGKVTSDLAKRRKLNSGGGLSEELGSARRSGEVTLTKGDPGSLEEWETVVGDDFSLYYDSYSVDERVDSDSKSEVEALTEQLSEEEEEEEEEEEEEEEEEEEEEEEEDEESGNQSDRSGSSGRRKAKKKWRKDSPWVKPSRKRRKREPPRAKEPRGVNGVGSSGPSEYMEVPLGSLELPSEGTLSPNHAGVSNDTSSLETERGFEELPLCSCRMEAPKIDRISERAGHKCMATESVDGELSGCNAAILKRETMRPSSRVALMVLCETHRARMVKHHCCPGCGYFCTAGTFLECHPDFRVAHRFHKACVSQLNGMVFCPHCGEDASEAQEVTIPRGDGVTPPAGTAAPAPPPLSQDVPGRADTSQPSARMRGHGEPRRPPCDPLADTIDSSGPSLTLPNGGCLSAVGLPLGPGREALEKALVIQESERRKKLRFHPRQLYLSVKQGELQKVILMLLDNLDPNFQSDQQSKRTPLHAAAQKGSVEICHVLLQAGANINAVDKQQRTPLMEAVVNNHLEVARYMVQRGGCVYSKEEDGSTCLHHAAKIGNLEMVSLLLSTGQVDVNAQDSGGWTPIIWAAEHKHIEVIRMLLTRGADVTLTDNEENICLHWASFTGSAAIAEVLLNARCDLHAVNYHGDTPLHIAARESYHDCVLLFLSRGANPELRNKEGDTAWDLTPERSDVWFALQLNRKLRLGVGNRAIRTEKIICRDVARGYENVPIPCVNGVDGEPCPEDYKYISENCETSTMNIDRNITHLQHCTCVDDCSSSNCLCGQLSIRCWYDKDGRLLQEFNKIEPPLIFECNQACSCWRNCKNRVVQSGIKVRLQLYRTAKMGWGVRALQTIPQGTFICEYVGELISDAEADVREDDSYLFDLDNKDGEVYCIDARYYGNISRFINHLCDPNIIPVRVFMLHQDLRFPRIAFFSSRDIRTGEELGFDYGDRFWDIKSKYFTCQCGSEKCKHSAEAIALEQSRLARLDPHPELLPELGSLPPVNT

For `COc1ccc(CN2CCC(Nc3nc(Nc4ccc(NC(=O)CCCCCCC(=O)NO)cc4)nc4cc(OC)c(OC)cc34)CC2)cc1`, the EC50 (NCI-H929) was 4.6 µM, the “Selectivity Index” value [1] was 12 and the Activity (MDA-MB-231 [2]) was 8%. For the same compound, the half-life at 3 µM [3] was 104 min, the Activity (KMS-12-BM [4]) was “Active” and the Activity (MDA-MB-231 [5]) was 12%. For the same compound, the Activity [6] was “Non-Toxic”, the Activity (MDA-MB-231 [7]) was 24% and the EC50 (MOLM-14) was 2800 nM. The inhibition [8] was “inactive”, the Ratio IC50 (Homo sapiens [9]) was 435 and the EC50 (OPM-2) was 7.9 µM. The EC50 [10] was 158 µM, the EC50 (KMS-12-BM [11]) was 7.6 µM and the inhibition (Homo sapiens [12]) was 27%. The EC50 (MCF7) was 7.3 µM, the Activity (MDA-MB-231 [13]) was 18% and the Activity (KMS-12-BM [14]) was “Active”. The Ratio IC50 (Homo sapiens [15]) was > 3000, the Papp at 16 h [16] was 7.9 ×10⁻⁶ cm/s and the Ratio IC50 (Homo sapiens [17]) was 26 to 33. The Activity (MDA-MB-231 [18]) was 15%, the Ratio IC50 (Homo sapiens [19]) was > 3000 and the microsomal CLint at 3 µM [20] was 16.3 µL/min/mg. The inhibition [21] was 37%.
